US20240043404A1 (AbbVie Inc., priority 2009, published 2024)
Where two headings read alike, the source gives them in different places.

Tested on: RS4;11 cells
Test: RS4;11 cell viability assay (CellTiter Glo);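 note: acute lymphoblastic leukemia line RS4,11, EC50 derived from percentage of viable cells after treatment relative to untreated controls, cell killing taken as a measure of Bcl-2 inhibition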
Assay type: cell-based, human
Details: 10% human serum, 48 hours, read-out: RS4, 11 EC50 Values
[1] = Homo sapiens, RS4-11, 48 h, 50,000 cells per well

Description: The acute lymphoblastic leukemia (ALL) cell line RS4;11 was used as the primary human cell line to assess the cellular activity of Bcl-2 selective agents in vitro and their efficacy in vivo.
Cell cytotoxicity EC50 values were assessed using CellTiter Glo (Promega) according to the manufacturer's recommendations. The EC50 values were determined as a percentage of viable cells following treatment compared to the untreated control cells.

Row | EC50 (50,000 cells per well) | EC50 [1] | SMILES
1 | 0.00506 µM | – | CC1(C)CCC(CN2CCN(c3ccc(C(=O)NS(=O)(=O)c4ccc(NCC56CC7CC(C5)C(O)C(C7)C6)c([N+](=O)[O-])c4)c(Oc4cnc5[nH]ccc5c4)c3)CC2)=C(c2ccc(Cl)cc2)C1 (stereo not drawn) [Example 199, 4-(4-{[2-(4-chlorophenyl)-4,4-dimethylcyclohex-1-en-1-yl]methyl}piperazin-1-yl)-N-{[4-({[(E)-4-hydroxy-1-adamantyl]methyl}amino)-3-nitrophenyl]sulfonyl}-2-(1H-pyrrolo[2,3-b]pyridin-5-yloxy)benzamide]
2 | 0.011 µM | – | CC1(C)CCC(CN2CCN(c3ccc(C(=O)NS(=O)(=O)c4ccc(NCC56CC7CC(C5)C(O)C(C7)C6)c([N+](=O)[O-])c4)c(Oc4cnc5[nH]ccc5c4)c3)CC2)=C(c2ccc(Cl)cc2)C1 (stereo not drawn) [Example 200, 4-(4-{[2-(4-chlorophenyl)-4,4-dimethylcyclohex-1-en-1-yl]methyl}piperazin-1-yl)-N-{[4-({[(Z)-4-hydroxy-1-adamantyl]methyl}amino)-3-nitrophenyl]sulfonyl}-2-(1H-pyrrolo[2,3-b]pyridin-5-yloxy)benzamide]
3 | – | 0.591 µM | CC1(C)CCC(CN2CCN(c3ccc(C(=O)NS(=O)(=O)c4ccc(OCC5C[C@H]6C=C[C@@H]5C6)c([N+](=O)[O-])c4)c(Oc4cnc5[nH]ccc5c4)c3)CC2)=C(c2ccc(Cl)cc2)C1 (stereo partly drawn) [Example 201, N-({4-[(1S,4S)-bicyclo[2.2.1]hept-5-en-2-ylmethoxy]-3-nitrophenyl}sulfonyl)-4-(4-{[2-(4-chlorophenyl)-4,4-dimethylcyclohex-1-en-1-yl]methyl}piperazin-1-yl)-2-(1H-pyrrolo[2,3-b]pyridin-5-yloxy)benzamide]
4 | – | 0.0438 µM | CN1CC(Nc2ccc(S(=O)(=O)NC(=O)c3ccc(N4CCN(CC5=C(c6ccc(Cl)cc6)CC(C)(C)CC5)CC4)cc3Oc3cnc4[nH]ccc4c3)cc2[N+](=O)[O-])CC1=O (stereo not drawn) [Example 202, 4-(4-{[2-(4-chlorophenyl)-4,4-dimethylcyclohex-1-en-1-yl]methyl}piperazin-1-yl)-N-({4-[(1-methyl-5-oxopyrrolidin-3-yl)amino]-3-nitrophenyl}sulfonyl)-2-(1H-pyrrolo[2,3-b]pyridin-5-yloxy)benzamide]
5 | – | 0.0106 µM | CC1(C)CCC(CN2CCN(c3ccc(C(=O)NS(=O)(=O)c4ccc(OCC5CCCC(=O)C5)c([N+](=O)[O-])c4)c(Oc4cnc5[nH]ccc5c4)c3)CC2)=C(c2ccc(Cl)cc2)C1 (stereo not drawn) [Example 205, 4-(4-{[2-(4-chlorophenyl)-4,4-dimethylcyclohex-1-en-1-yl]methyl}piperazin-1-yl)-N-({3-nitro-4-[(3-oxocyclohexyl)methoxy]phenyl}sulfonyl)-2-(1H-pyrrolo[2,3-b]pyridin-5-yloxy)benzamide]
6 | – | 0.0529 µM | CC1(C)C=CC(c2ccc(Cl)cc2)=C(CN2CCN(c3ccc(C(=O)NS(=O)(=O)c4ccc(NCC5CCOCC5)c([N+](=O)[O-])c4)c(Oc4cnc5[nH]ccc5c4)c3)CC2)C1 [Example 206, 4-(4-{[2-(4-chlorophenyl)-5,5-dimethylcyclohexa-1,3-dien-1-yl]methyl}piperazin-1-yl)-N-({3-nitro-4-[(tetrahydro-2H-pyran-4-ylmethyl)amino]phenyl}sulfonyl)-2-(1H-pyrrolo[2,3-b]pyridin-5-yloxy)benzamide]
7 | – | 0.00376 µM | CC1(C)CCC(CN2CCN(c3ccc(C(=O)NS(=O)(=O)c4ccc(N[C@@H]5CCN(C(CF)CF)C5)c([N+](=O)[O-])c4)c(Oc4cnc5[nH]ccc5c4)c3)CC2)=C(c2ccc(Cl)cc2)C1 [Example 207, 4-(4-{[2-(4-chlorophenyl)-4,4-dimethylcyclohex-1-en-1-yl]methyl}piperazin-1-yl)-N-{[4-({(3R)-1-[2-fluoro-1-(fluoromethyl)ethyl]pyrrolidin-3-yl}amino)-3-nitrophenyl]sulfonyl}-2-(1H-pyrrolo[2,3-b]pyridin-5-yloxy)benzamide]
8 | – | 0.121 µM | CC1(C)CCC(CN2CCN(c3ccc(C(=O)NS(=O)(=O)c4cnc(OCC5(F)CCOCC5)c(C(F)(F)F)c4)c(Oc4cnc5[nH]ccc5c4)c3)CC2)=C(c2ccc(Cl)cc2)C1 [Example 208, 4-(4-{[2-(4-chlorophenyl)-4,4-dimethylcyclohex-1-en-1-yl]methyl}piperazin-1-yl)-N-{[6-[(4-fluorotetrahydro-2H-pyran-4-yl)methoxy]-5-(trifluoromethyl)pyridin-3-yl]sulfonyl}-2-(1H-pyrrolo[2,3-b]pyridin-5-yloxy)benzamide]
9 | – | 0.0045 µM | CC1(C)CCC(CN2CCN(c3ccc(C(=O)NS(=O)(=O)c4ccc(NC[C@@H]5CCN(C6COC6)C5)c([N+](=O)[O-])c4)c(Oc4cnc5[nH]ccc5c4)c3)CC2)=C(c2ccc(Cl)cc2)C1 [Example 209, 4-(4-{[2-(4-chlorophenyl)-4,4-dimethylcyclohex-1-en-1-yl]methyl}piperazin-1-yl)-N-{[3-nitro-4-({[(3S)-1-oxetan-3-ylpyrrolidin-3-yl]methyl}amino)phenyl]sulfonyl}-2-(1H-pyrrolo[2,3-b]pyridin-5-yloxy)benzamide]
10 | – | 0.0602 µM | CO[C@H]1CC[C@H](COc2ncc(S(=O)(=O)NC(=O)c3ccc(N4CCN(CC5=C(c6ccc(Cl)cc6)CC(C)(C)CC5)CC4)cc3Oc3cnc4[nH]ccc4c3)cc2Cl)CC1 [Example 210, Trans-N-({5-chloro-6-[(4-methoxycyclohexyl)methoxy]pyridin-3-yl}sulfonyl)-4-(4-{[2-(4-chlorophenyl)-4,4-dimethylcyclohex-1-en-1-yl]methyl}piperazin-1-yl)-2-(1H-pyrrolo[2,3-b]pyridin-5-yloxy)benzamide]
11 | – | 0.307 µM | CO[C@H]1CC[C@@H](COc2ncc(S(=O)(=O)NC(=O)c3ccc(N4CCN(CC5=C(c6ccc(Cl)cc6)CC(C)(C)CC5)CC4)cc3Oc3cnc4[nH]ccc4c3)cc2Cl)CC1 [Example 211, Cis-N-({5-chloro-6-[(4-methoxycyclohexyl)methoxy]pyridin-3-yl}sulfonyl)-4-(4-{[2-(4-chlorophenyl)-4,4-dimethylcyclohex-1-en-1-yl]methyl}piperazin-1-yl)-2-(1H-pyrrolo[2,3-b]pyridin-5-yloxy)benzamide]
12 | – | 0.0128 µM | CC1(C)CCC(CN2CCN(c3ccc(C(=O)NS(=O)(=O)c4ccc(N[C@H]5CCN(C6COC6)C5)c([N+](=O)[O-])c4)c(Oc4cnc5[nH]ccc5c4)c3)CC2)=C(c2ccc(Cl)cc2)C1 [Example 212, 4-(4-{[2-(4-chlorophenyl)-4,4-dimethylcyclohex-1-en-1-yl]methyl}piperazin-1-yl)-N-[(3-nitro-4-{[(3S)-1-oxetan-3-ylpyrrolidin-3-yl]amino}phenyl)sulfonyl]-2-(1H-pyrrolo[2,3-b]pyridin-5-yloxy)benzamide]
13 | – | 0.0061 µM | COCCOCCN1CCOC(CNc2ccc(S(=O)(=O)NC(=O)c3ccc(N4CCN(CC5=C(c6ccc(Cl)cc6)CC(C)(C)CC5)CC4)cc3Oc3cnc4[nH]ccc4c3)cc2[N+](=O)[O-])C1 (stereo not drawn) [Example 213, 4-(4-{[2-(4-chlorophenyl)-4,4-dimethylcyclohex-1-en-1-yl]methyl}piperazin-1-yl)-N-({4-[({4-[2-(2-methoxyethoxy)ethyl]morpholin-2-yl}methyl)amino]-3-nitrophenyl}sulfonyl)-2-(1H-pyrrolo[2,3-b]pyridin-5-yloxy)benzamide]
14 | – | 0.00438 µM | CC1(C)CCC(CN2CCN(c3ccc(C(=O)NS(=O)(=O)c4ccc(NCC5CN(CC#N)CCO5)c([N+](=O)[O-])c4)c(Oc4cnc5[nH]ccc5c4)c3)CC2)=C(c2ccc(Cl)cc2)C1 (stereo not drawn) [Example 214, 4-(4-{[2-(4-chlorophenyl)-4,4-dimethylcyclohex-1-en-1-yl]methyl}piperazin-1-yl)-N-{[4-({[4-(cyanomethyl)morpholin-2-yl]methyl}amino)-3-nitrophenyl]sulfonyl}-2-(1H-pyrrolo[2,3-b]pyridin-5-yloxy)benzamide]
15 | – | 0.00056 µM | CN(C)CC(=O)N1CCOC(CNc2ccc(S(=O)(=O)NC(=O)c3ccc(N4CCN(CC5=C(c6ccc(Cl)cc6)CC(C)(C)CC5)CC4)cc3Oc3cnc4[nH]ccc4c3)cc2[N+](=O)[O-])C1 (stereo not drawn) [Example 215, 4-(4-{[2-(4-chlorophenyl)-4,4-dimethylcyclohex-1-en-1-yl]methyl}piperazin-1-yl)-N-{[4-({[4-(N,N-dimethylglycyl)morpholin-2-yl]methyl}amino)-3-nitrophenyl]sulfonyl}-2-(1H-pyrrolo[2,3-b]pyridin-5-yloxy)benzamide]
16 | – | 0.683 µM | CC1(C)CCC(CN2CCN(c3ccc(C(=O)NS(=O)(=O)c4ccc(NCC5CN(CC(=O)O)CCO5)c([N+](=O)[O-])c4)c(Oc4cnc5[nH]ccc5c4)c3)CC2)=C(c2ccc(Cl)cc2)C1 (stereo not drawn) [Example 216, (2-{[(4-{[4-(4-{[2-(4-chlorophenyl)-4,4-dimethylcyclohex-1-en-1-yl]methyl}piperazin-1-yl)-2-(1H-pyrrolo[2,3-b]pyridin-5-yloxy)benzoyl]sulfamoyl}-2-nitrophenyl)amino]methyl}morpholin-4-yl)acetic acid]
17 | – | 0.00155 µM | CC1(C)CCC(CN2CCN(c3ccc(C(=O)NS(=O)(=O)c4ccc(NCC5CN(C6COC6)CCO5)c([N+](=O)[O-])c4)c(Oc4cnc5[nH]ccc5c4)c3)CC2)=C(c2ccc(Cl)cc2)C1 (stereo not drawn) [Example 217, 4-(4-{[2-(4-chlorophenyl)-4,4-dimethylcyclohex-1-en-1-yl]methyl}piperazin-1-yl)-N-{[3-nitro-4-({[4-(oxetan-3-yl)morpholin-2-yl]methyl}amino)phenyl]sulfonyl}-2-(1H-pyrrolo[2,3-b]pyridin-5-yloxy)benzamide]
18 | – | 0.00729 µM | CC1(C)CCC(CN2CCN(c3ccc(C(=O)NS(=O)(=O)c4ccc(NCC5CN(C6CC6)CCO5)c([N+](=O)[O-])c4)c(Oc4cnc5[nH]ccc5c4)c3)CC2)=C(c2ccc(Cl)cc2)C1 (stereo not drawn) [Example 218, 4-(4-{[2-(4-chlorophenyl)-4,4-dimethylcyclohex-1-en-1-yl]methyl}piperazin-1-yl)-N-[(4-{[(4-cyclopropylmorpholin-2-yl)methyl]amino}-3-nitrophenyl)sulfonyl]-2-(1H-pyrrolo[2,3-b]pyridin-5-yloxy)benzamide]
